Laboratory results reported in patent US5434136A, “Treatment of motility disorders with a GNRH analog” (priority 1992, dated 1995).

Tests used:
[1] = system: functional bowel disease (IIHVN), ovaries removed; assay: Effective dose of leuprolide acetate in patients having previous ovariectomy; format: in vivo, human
From the text: Two patients discussed in Example 1 were women who had undergone surgery for removal of their ovaries. The first patient, Number 3, had undergone this surgery approximately two years prior to beginning Leuprolide acetate treatment. The second patient, Number 4, underwent ovariectomy 18 months […] beginning treatment with Leuprolide Acetate. In both cases, the effective dose of leuprolide acetate was higher than the effective dose required by patients who had not had ovaries removed.

[2] = system: migrating motor complexes, jejunum; assay: Leuprolide acetate in ovariectomized female rats: migrating motor complexes; format: in vivo, ovariectomized female Wistar rats; details: for Migrating Motor Complexes, L-Fasted / Migrating Motor Complexes, L-Fed: ovariectomized
Description: Eleven female Wistar rats weighing between 175 and 250 g were each implanted with four bipolar Ag/AgCL electrodes (the preparation of which is described in: Mathias, Am. J. Physiology, 249:[…]-[…], 1981). The electrodes were sewn 5 cm from the Ligament of Trietz and 5 cm apart, onto the jejunal serosa. The number of migrating myoelectric complexes was recorded using a R-612 Dynograph (Sensor-Medics, Anaheim, Calif.). Rats were fasted for 36 hours prior to recording and feeding (no food, liberal water), and were housed in special cages to remove feces. After 36 hours of fasting, Migrating Motor Complexes (MMC) were recorded at a sensitivity of 0.2 mV/cm, 2.5 mm/sec paper speed, and a Time Constant of 1 for a duration of 2 to 4 hours. Immediately following the fasted recording session, the rats were fed 2 biscuits of Purina rat chow with simultaneous recording during feeding and continued for 4 hours. Female Wistar rats were ovariectomized and permitted to recover ten days. Bipolar Ag/AgCl electrodes were then implanted as described for example 4. Control MMC readings in the fasted and fed states were recorded prior to treatment with leuprolide acetate (Controls) as described in Example 4. Treatment with leuprolide acetate followed using doses in the range of 2 to 250 μg/100 g body weight. Fasted and fed recordings were obtained as described for Example 4.

[3] = system: end-stage scleroderma; assay: Treatment of end stage scleroderma with leuprolide acetate; format: in vivo, human; details: Patient 6, 0.5 mg daily s.c.
Description: Patient number 6 was in end-stage scleroderma. They had been bed-ridden for approximately eight months, unable to retain food after eating, and was being maintained on total parental hyperalimentation (TPN) to keep up body weight and fluid and electrolyte balance for five months. This patient was treated with 0.5 mg Leuprolide acetate daily, by subcutaneous injection according to the protocol of example 1.

[4] = system: irritable bowel syndrome; details: patient
Description: The patient, a patient suffering from irritable bowel syndrome presented symptoms of nausea, vomiting, abdominal pain, and altered bowel habits. This patient was treated with lupron, 2.0 mg/day by subcutaneous injection, for a period of six months. […] Nafarelin is a GnRH analog available from SYNTEX, which differs from the natural GnRH peptide in a D-Nal (2)^6 substitution. […] Nafarelin therapy was discontinued, and treatment with Danazol, a 17-ethyltestosterone derivative known to antagonize GnRH receptors at the level of the pituitary, was begun, at 200 mg four times daily, P.O., for a period of three months.

[5] = system: GI disorders secondary to SLE; assay: Treatment of patients with GI disorders secondary to Systemic Lupus Erythematosus: clinical outcome; format: in vivo, human; details: for GI symptoms: within eight weeks
Description: Daily treatment with 2.0 mg luprolide acetate (Lupron, Tapp Abbott Pharmaceutical Company) was given daily by subcutaneous injection. […] Treatment with 1.25 mg. of leuprolide acetate (Lupron) was given daily by subcutaneous injection. […] Daily administration of 1.75 mg of luprolide acetate (Lupron) was administered subcutaneously. […] This patient has been hospitalized several times since beginning luprolide acetate therapy for exacerbations of their SLE, but the GI tract has not been a factor. Their debilitating symptoms have been controlled, and they were able to return to work. Daily administration of 1.5 mg of luprolide acetate (Lupron) was given by subcutaneous injection. Within eight weeks of Lupron therapy, their GI symptoms were controlled. […] Daily administration of 1.75 mg luprolide acetate (Lupron) was given subcutaneously. After six months of Lupron therapy, motility recordings were again performed. Ten migrating motor complexes per 12 hour recording session were seen. These complexes were organized and appeared more typical of a controlled tracing, showing normal cycling activity in the stomach and small intestine. […] Their hydrogen breath test was unchanged.

[6] = system: motility of stomach and small intestine; assay: Motility recordings (duodenal jejunal manometry) and hydrogen breath test in SLE patients; format: in vivo, human
Description: Motility recordings of the stomach and small intestine were performed with a ultraminiature force-transducer probe (Millar Instruments, Houston, Tex.). Pressure readings from the probe were recorded on an R612 physiologic recorder fitted with Model 9872 couplers (SenorMedics, Yorba Linda, Calif.). After the probe was passed transnasally and placed fluoroscopically, a 12 hour recording of the patient was made with the patient in the fasted state. They then drank a 240-ml liquid meal (ENSURE), and the recording was continued for three hours to evaluate conversion from the fasting pattern to fed-state motor activity. During the fasting state, this patient had three poorly formed and disorganized migrating motor complexes, whereas the normal range expected is 6-8, or a mean of 7.4 in the 12 hour recording period. […] The patient was diagnosed as having chronic intestinal pseudo-obstruction associated with sero-negative SLE.

[7] = SLE patient 1, 2.0 mg daily s.c.
[8] = SLE patient 2, 1.25 mg daily s.c., within approximately eight weeks
[9] = SLE patient 4, 1.5 mg daily s.c.

SMILES: CCNC(=O)[C@@H]1CCCN1C(=O)[C@H](CCCNC(=N)N)NC(=O)[C@H](CC(C)C)NC(=O)[C@@H](CC(C)C)NC(=O)[C@H](Cc1ccc(O)cc1)NC(=O)[C@H](CO)NC(=O)[C@H](Cc1c[nH]c2ccccc12)NC(=O)[C@H](Cc1c[nH]cn1)NC(=O)[C@@H]1CCC(=O)N1 [Leuprolide acetate, leuprolide acetate]
- Daily dose needed to overcome symptoms ([1]; Patient 3, ovaries removed, initially 0.5 mg): 2.0 mg
- Effective daily dose that relieved symptoms ([1]; Patient 4, post-ovariectomy): 2.0 mg
- Sufficiency of daily dose of 0.5 mg ([1]; Patient 4, post-ovariectomy): not sufficient
- Symptoms at daily dose of 0.5 mg ([1]; Patient 4, prior to the removal of their ovaries): symptom free
- Effective dose compared with patients who had not had ovaries removed ([1]; Patients 3 and 4): higher
- Dose required to overcome the reduction of MMC/hour in fed rats ([2]; ovariectomized female rats): 100 ug/100 g body weight
- Migrating Motor Complexes, L-Fasted ([2]; 2 μg/100 g body weight, control 3.86 + 0.14, mean + SEM): 4.40 + 0.16 MMC/hour
- Migrating Motor Complexes, L-Fed ([2]; 2 μg/100 g body weight, control 0): 0 MMC/hour
- Migrating Motor Complexes, L-Fasted ([2]; 20 μg/100 g body weight, control 5.17 + 0.31, mean + SEM): 5.40 + 0.15 MMC/hour
- Migrating Motor Complexes, L-Fed ([2]; 20 μg/100 g body weight, control 0): 0 MMC/hour
- Migrating Motor Complexes, L-Fasted ([2]; 40 μg/100 g body weight, control 4.50 + 0.22, mean + SEM): 5.23 + 0.41 MMC/hour
- Migrating Motor Complexes, L-Fed ([2]; 40 μg/100 g body weight, control 0.88 + 0.58): 0 MMC/hour
- Migrating Motor Complexes, L-Fasted ([2]; 100 μg/100 g body weight, control 4.00 + 0.17, mean + SEM): 5.00 + 0.41 MMC/hour
- Migrating Motor Complexes, L-Fed ([2]; 100 μg/100 g body weight, control 0, mean + SEM): 4.50 + 0.34 MMC/hour
- Migrating Motor Complexes, L-Fasted ([2]; 250 μg/100 g body weight, control 4.50 + 0.22, mean + SEM): 4.50 + 0.29 MMC/hour
- Migrating Motor Complexes, L-Fed ([2]; 250 μg/100 g body weight, control 0.88 + 0.58, mean + SEM): 5.00 + 0.58 MMC/hour
- Eating and body weight at discharge [3]: eating without difficulty, and had gained weight
- Need for TPN feeding after five weeks of therapy [3]: did not require the TPN feeding
- Mobility after five weeks of therapy ([3]; bed-ridden before): able to move about actively
- Blood levels of FSH and LH ([4]; 2.0 mg/day s.c., six months (entry one)): effectively reduced their blood levels of FSH and LH
- Symptoms of irritable bowel disease ([4]; 2.0 mg/day s.c., six months (entry two)): effectively reduced the symptoms of their irritable bowel disease
- Irritable bowel symptoms ([4]; depot of 7.5 mg I.M. monthly with 100 mg testosterone depot I.M. monthly, after six months): controlled without side effects
- Compliment levels (C3 and C4) [5, 7]: returned to normal
- Hemoglobin, hematocrit, white blood cells and platelets [5, 7]: returned to normal
- Need of Imuran or prednisone to control SLE [5, 7]: no longer required Imuran or prednisone
- GI symptoms [5, 7]: free of the above described GI symptoms
- Body weight gained [5, 8]: 15-20 pounds
- Gastrointestinal symptoms [5, 8]: free of gastrointestinal symptoms
- Oral food intake ([5]; SLE patient 3, 1.75 mg daily s.c., required TPN before): able to eat soft, solid food by mouth
- GI symptoms ([5]; SLE patient 3, 1.75 mg daily s.c.): controlled
- Nutrition [5, 9]: able to eat and maintain their nutrition on liquid supplements taken by mouth
- Body weight within six months ([5]; SLE patient 4, 1.5 mg daily s.c., oral intake): did not gain weight, but they did not lose weight
- GI symptoms [5, 9]: controlled
- Effectiveness of therapy in an older, post menopausal patient ([5]; SLE patient 5): effective
- Eating and body weight ([5]; SLE patient 5, after six months of therapy): able to eat foods by mouth and gained weight
- Motility pattern upon the liquid meal ([6]; SLE patient 4, after six months of therapy, failed to convert before): converted to the fed state
- Cycling migrating motor complexes in the motility recording ([6]; SLE patient 4, after six months of therapy, virtually no motility before, normal range 6-8 per 12 hour): six
- Migrating motor complexes per 12 hour recording session ([6]; SLE patient 5, 1.75 mg daily s.c., after six months, absence of motility before): Ten
- Motility pattern after intake of the liquid meal ([6]; SLE patient 5, after six months of therapy, failed to convert before): converted to the fed state pattern
- Hydrogen breath test (oral to cecal transit time) ([6]; SLE patient 5, after six months of therapy, markedly prolonged before): unchanged
